Data as given in patent US9969688B2, “Roflumilast prodrugs” (HISAMITSU PHARMACEUTICAL CO., INC., priority 2014, dated 2018).
≈ marks a conversion by molar mass, not a printed value.

Assays:
[1] = Evaluation test of skin permeability (Franz diffusion cell); type: in vitro ADME; details: hairless mouse skin; for Jmax (maximum skin permeation rate) / Cumulative Amount of Permeation for 24 hours: 1 w/w % in dimethyl sulfoxide, 100 μL, 32° C.
Procedure: Skin was excised from the back of a hairless mouse and the section of the skin was placed in a Franz diffusion cell (glass cell) so that a solution of each of test compounds (compounds of Examples, Comparative Example, or Reference Examples) was contacted with the epidermal side of the section of the skin (applied area: 1 cm^2). Phosphate buffered physiological saline (PBS) was used as a flow solution. The flow rate was set to 5 mL/hour and the temperature of thermoregulated bath was set to 32° C. Next, dimethyl sulfoxide was added to achieve the concentration of the test compound of 1 w/w % and the resultant was stirred thoroughly to prepare a solution of the test compound. The donor chamber of the Franz diffusion cell was charged with 100 μL of the resulting solution of the test compound. The flow solution was sampled every 2 hours until 24 hours after the charge of the test compound solution. The flow solutions sampled every 2 hours were diluted two-fold by adding acetonitrile and the diluted solution was centrifuged to give supernatants as an HPLC analytical sample. Each of the resulting analytical samples was analyzed by high performance liquid chromatography to calculate the maximum skin permeation rate (Jmax) and the cumulative amount of permeation for 24 hours. Roflumilast was used in Comparative Example 1.

[2] = Evaluation test of water solubility (saturated solubility); type: physicochemical; details: phosphate buffer (pH 7); for solubility at 30 min: aqueous buffer, thermodynamic from solid, ultrasonicated 30 minutes
Procedure: An excessive amount of a test compound was added to 10 mL of phosphate buffer (pH 7) and the resultant was ultrasonicated for 30 minutes. The resulting suspension was filtered and 0.5 mL of acetonitrile was added to 0.5 mL of the filtrate to obtain a test solution. The concentration of the test compound in the test solution was determined by high performance liquid chromatography to calculate the saturated solubility. Roflumilast was used in Comparative Example 1.

[3] = system: human liver enzyme fraction; experiment: In vitro metabolism test (metabolic rate into roflumilast); type: in vitro ADME; details: treated with human liver enzyme fractions
Procedure: A human liver enzyme fraction was added to 100 mmol/L Tris-HCl buffer containing coenzymes (NADPH-producing) so as to achieve the concentration of 0.5 mg protein/mL and the resultant was pre-incubated at 37° C. for 5 minutes. A test compound was added to this solution so as to achieve the concentration of 0.1 μmol/L and the resultant was incubated at 37° C. for an hour. The reaction was then stopped by adding water-cooled acetonitrile. The resulting solution was filtered and then quantified by using LC-MS/MS to calculate the metabolic rate (%) into roflumilast. It is noted that “with heat treatment” in Table 1 means using a human liver enzyme fraction subjected to heat treatment before adding to thereby inactivate a metabolic enzyme therein.
Numerical values in Table 1 represent metabolic rates (%) into rofiumilast. […] Roflumilast was not produced when metabolic enzymes were inactivated by heat treatments prior to using the human liver enzyme fractions.

| Compound | Jmax (maximum skin permeation rate) [1] [μg/cm^2/hr] | Cumulative Amount of Permeation for 24 hours [1] [μg/cm^2] | solubility at 30 min [2] [µg/mL] | Ratio to Roflumilast (saturated solubility) [2] | skin permeability (in words) ([1]; up to 24 hours) | production of roflumilast by human liver enzyme fractions (in words) [3] |
| --- | --- | --- | --- | --- | --- | --- |
| COCN(C(=O)c1ccc(OC(F)F)c(OCC2CC2)c1)c1c(Cl)cncc1Cl [Example 6, N-(3,5-dichloropyrid-4-yl)-N-methoxymethyl-3-cyclopropylmethoxy-4-difluoromethoxybenzamide] | 1.2 | 17.6 |  |  |  |  |
| O=C(c1ccc(OC(F)F)c(OCC2CC2)c1)N(CCCO)c1c(Cl)cncc1Cl [Example 5, N-(3,5-dichloropyrid-4-yl)-N-(3-hydroxypropan-1-yl)-3-cyclopropylmethoxy-4-difluoromethoxybenzamide] | 8.5 | 163.5 |  |  |  |  |
| CN(C(=O)c1ccc(OC(F)F)c(OCC2CC2)c1)c1c(Cl)cncc1Cl [Example 3, N-(3,5-dichloropyrid-4-yl)-N-methyl-3-cyclopropylmethoxy-4-difluoromethoxybenzamide] | 3.2 | 51.0 | 9.7 (≈ 23.2 µM) | 26.0 |  |  |
| N#CCN(C(=O)c1ccc(OC(F)F)c(OCC2CC2)c1)c1c(Cl)cncc1Cl [Example 1, N-cyanomethyl-N-(3,5-dichloropyrid-4-yl)-3-cyclopropylmethoxy-4-difluoromethoxybenzamide] | 1.2 | 12.1 | 1.64 (≈ 3.72 µM) | 4.4 |  |  |
| O=C(Nc1c(Cl)cncc1Cl)c1ccc(OC(F)F)c(OCC2CC2)c1 [Comparative Example 1, N-(3,5-dichloropyrid-4-yl)-3-cyclopropylmethoxy-4-difluoromethoxybenzamide, reference compound] | 0.0 | 0.0 | 0.373 (≈ 0.925 µM) | 1 | no skin permeability even after 24 hours |  |

Further lines, results first:

| Jmax (maximum skin permeation rate) [1] [μg/cm^2/hr] | Cumulative Amount of Permeation for 24 hours [1] [μg/cm^2] | solubility at 30 min [2] [µg/mL] | Ratio to Roflumilast (saturated solubility) [2] | skin permeability (in words) ([1]; up to 24 hours) | production of roflumilast by human liver enzyme fractions (in words) [3] | Compound |
| --- | --- | --- | --- | --- | --- | --- |
| 9.5 | 56.9 | 612 (≈ 1330 µM) | 1640.2 |  | did not produce roflumilast | O=C(O)CN(C(=O)c1ccc(OC(F)F)c(OCC2CC2)c1)c1c(Cl)cncc1Cl [Reference Example 2, N-carboxymethyl-N-(3,5-dichloropyrid-4-yl)-3-cyclopropylmethoxy-4-difluoromethoxybenzamide, reference compound] |
| 10.7 | 157.7 | 12.5 (≈ 27.9 µM) | 33.4 |  |  | O=C(c1ccc(OC(F)F)c(OCC2CC2)c1)N(CCO)c1c(Cl)cncc1Cl [Example 2, N-(3,5-dichloropyrid-4-yl)-N-(2-hydroxyethyl)-3-cyclopropylmethoxy-4-difluoromethoxybenzamide] |
| 0.9 | 7.2 | 16.6 (≈ 36 µM) | 44.5 |  | did not produce roflumilast | NC(=O)CN(C(=O)c1ccc(OC(F)F)c(OCC2CC2)c1)c1c(Cl)cncc1Cl [Reference Example 1, N-carbamoylmethyl-N-(3,5-dichloropyrid-4-yl)-3-cyclopropylmethoxy-4-difluoromethoxybenzamide, reference compound] |
